# According to patent US20210085711A1 (Japan Tobacco Inc., priority 2017, published 2021):
# Read-outs that look alike come from different tables or passages of the source.
# Tests used:
# [1] = system: patients with hypermenorrhea and/or patients with hypermenorrhea-associated gynecologic diseases (iron-deficiency anemia patients); details: for Hb change, End of administration, Mean: change from baseline; for Williams test, Mean of change amount from the baseline at the end of administration, JTT-751-placebo: difference to placebo
# Description: (§1) This test was a three-stage safety and efficacy clinical trial at multi-facilities. The first stage was a pre-observation period (Day −40 to Day −1), the second stage was an administration period (Day 1 to Day 48) (efficacy and safety evaluation period), and the third stage was a post-observation period (Day 49 to Day 63) (efficacy and safety evaluation period). The safety evaluation and efficacy evaluation were performed by multi-facility collaboration, placebo control, random allocation, double-blind trial, and parallel group comparison test.
# The administration period of the trial drug is seven weeks which starts from the next day of the Week 0 visit to the day before the Week 7 visit, provided that the trial drug is not taken on the scheduled Week 3 visit.
# Amount of change in blood hemoglobin value (Hb) from Week 0 at the end of administration
# The mean of each administration group is used as a placebo group (μ1), a 250 mg group (μ2), a 500 mg group (μ3), a 1000 mg group (μ4), a 1500 mg group (μ5).
# The blood hemoglobin value (Hb), the serum iron level, the serum ferritin value, the total iron-binding capacity (TIBC) and the transferrin saturation rate (TSAT), and the mean corpuscular volume (MCV) were each examined at the observation start date, Week 0, Week 3, Week 7, the end of administration and the consultation at nine weeks after Week 0; the hepcidin concentration (Hepcidin 25) and the serum soluble transferrin receptor concentration (sTfR) were each examined on Week 0, Week 3 and Week 7 and at the end of administration; and the C-terminal FGF23 value (cFGF23) and the intact FGF23 value (iFGF23) were each examined on Week 0 and Week 7 and at the end of administration.
# [2] = system: patients with hypermenorrhea-associated gynecologic diseases; experiment: Phase II clinical trial of JTT-751: safety evaluation (harmful events) in combined use with medicaments affecting the amount of menstrual bleeding; type: in vivo, human; details: combined with carbazochrome sodium sulfonate, transamin or ethynylestradiol combinations
# Description: as §1, with “test. […]” for “test.”
# (1) Regarding the subjective symptoms and objective findings, when “expression of new abnormality” was observed between the start of the trial drug administration and nine weeks after Week 0 or at the end of examination after discontinuation as compared to before the start of the trial drug administration. […] (3) Regarding clinical examination, vital sign and standard 12-induced electrocardiogram, when the principal investigator or subinvestigator determined that an abnormality newly recognized between the start of the trial drug administration and nine weeks after Week 0 or at the end of examination after discontinuation, or aggravation of abnormality observed from before the start of the trial drug administration was a clinical problem. […]
substance,measurement,setting,value
Ferric citrate [JTT-751],"Hb measured value, Base line, Mean",[1]; 250 mg/day,9.47 g/dL
same,"Hb measured value, End of administration, Mean",[1]; 250 mg/day,11.72 g/dL
same,"Williams test, Mean of change amount from the baseline at the end of administration, Mean",[1]; 250 mg/day,2.25 g/dL
same,"Hb, Median","[1]; 250 mg/day, 9 weeks after Week 0",11.60 g/dL
same,"Hb, Median","[1]; 250 mg/day, End of administration",11.80 g/dL
same,"Hb, Median","[1]; 250 mg/day, Observation start date (before administration)",9.55 g/dL
same,"Hb, Median","[1]; 250 mg/day, Week 0 (baseline)",9.80 g/dL
same,"Hb, Median","[1]; 250 mg/day, Week 3",10.75 g/dL
same,"Hb, Median","[1]; 250 mg/day, Week 7",11.80 g/dL
same,"Hb change, End of administration, Mean",[1]; 250 mg/day,2.25 g/dL
same,"Williams test, Mean of change amount from the baseline at the end of administration, JTT-751-placebo",[1]; 250 mg/day,2.50 g/dL
same,"Hb measured value, Base line, Mean",[1]; 500 mg/day,8.98 g/dL
same,"Hb measured value, End of administration, Mean",[1]; 500 mg/day,11.71 g/dL
same,"Williams test, Mean of change amount from the baseline at the end of administration, Mean",[1]; 500 mg/day,2.73 g/dL
same,"Hb, Median","[1]; 500 mg/day, 9 weeks after Week 0",11.70 g/dL
same,"Hb, Median","[1]; 500 mg/day, End of administration",11.90 g/dL
same,"Hb, Median","[1]; 500 mg/day, Observation start date (before administration)",9.30 g/dL
same,"Hb, Median","[1]; 500 mg/day, Week 0 (baseline)",8.95 g/dL
same,"Hb, Median","[1]; 500 mg/day, Week 3",10.10 g/dL
same,"Hb, Median","[1]; 500 mg/day, Week 7",11.90 g/dL
same,"Hb change, End of administration, Mean",[1]; 500 mg/day,2.73 g/dL
same,"Williams test, Mean of change amount from the baseline at the end of administration, JTT-751-placebo",[1]; 500 mg/day,2.98 g/dL
same,"Hb measured value, Base line, Mean",[1]; 1000 mg/day,9.66 g/dL
same,"Hb measured value, End of administration, Mean",[1]; 1000 mg/day,12.72 g/dL
same,"Williams test, Mean of change amount from the baseline at the end of administration, Mean",[1]; 1000 mg/day,3.05 g/dL
same,"Hb, Median","[1]; 1000 mg/day, 9 weeks after Week 0",12.70 g/dL
same,"Hb, Median","[1]; 1000 mg/day, End of administration",12.90 g/dL
same,"Hb, Median","[1]; 1000 mg/day, Observation start date (before administration)",9.90 g/dL
same,"Hb, Median","[1]; 1000 mg/day, Week 0 (baseline)",9.80 g/dL
same,"Hb, Median","[1]; 1000 mg/day, Week 3",11.80 g/dL
same,"Hb, Median","[1]; 1000 mg/day, Week 7",12.90 g/dL
same,"Hb change, End of administration, Mean",[1]; 1000 mg/day,3.05 g/dL
same,"Williams test, Mean of change amount from the baseline at the end of administration, JTT-751-placebo",[1]; 1000 mg/day,3.30 g/dL
same,"Hb measured value, Base line, Mean",[1]; 1500 mg/day,9.38 g/dL
same,"Hb measured value, End of administration, Mean",[1]; 1500 mg/day,12.75 g/dL
same,"Williams test, Mean of change amount from the baseline at the end of administration, Mean",[1]; 1500 mg/day,3.37 g/dL
same,"Hb, Median","[1]; 1500 mg/day, 9 weeks after Week 0",12.70 g/dL
same,"Hb, Median","[1]; 1500 mg/day, End of administration",13.00 g/dL
same,"Hb, Median","[1]; 1500 mg/day, Observation start date (before administration)",9.40 g/dL
same,"Hb, Median","[1]; 1500 mg/day, Week 0 (baseline)",9.40 g/dL
same,"Hb, Median","[1]; 1500 mg/day, Week 3",11.60 g/dL
same,"Hb, Median","[1]; 1500 mg/day, Week 7",13.00 g/dL
same,"Hb change, End of administration, Mean",[1]; 1500 mg/day,3.37 g/dL
same,"Williams test, Mean of change amount from the baseline at the end of administration, JTT-751-placebo",[1]; 1500 mg/day,3.62 g/dL
same,"blood hemoglobin value, dose dependence",[1]; 250-1500 mg/day,increases along with the dose increase
same,"blood hemoglobin value, time-dependent change","[1]; Week 0, Week 3 and Week 7",increased along with the continuous administration
same,blood hemoglobin value after completion of administration,[1]; nine weeks after Week 0 (two weeks after completion of administration),did not decrease
same,blood hemoglobin value compared to the placebo administration group,"[1]; regardless of the dose amount (250-1500 mg/day), end of administration",significantly increase
same,harmful event caused by combined use with medicaments affecting the amount of menstrual bleeding,[2],no harmful event caused by the combined use was reported
